From ChEMBL document CHEMBL1150600, “Callyspongynic acid, a polyacetylenic acid which inhibits alpha-glucosidase, from the marine sponge Callyspongia truncata” (J Nat Prod, 2002) come the findings set out here.

In experiment [1] the test system is alpha-glucosidase (Saccharomyces cerevisiae). In words: Inhibition of alpha-glucosidase at 100 ug/ml after 30 mins.
Experiment [2] concerns the target T1, Cytosolic beta-glucosidase (Homo sapiens) (UniProt Q9H227).
T1 sequence (whole entry): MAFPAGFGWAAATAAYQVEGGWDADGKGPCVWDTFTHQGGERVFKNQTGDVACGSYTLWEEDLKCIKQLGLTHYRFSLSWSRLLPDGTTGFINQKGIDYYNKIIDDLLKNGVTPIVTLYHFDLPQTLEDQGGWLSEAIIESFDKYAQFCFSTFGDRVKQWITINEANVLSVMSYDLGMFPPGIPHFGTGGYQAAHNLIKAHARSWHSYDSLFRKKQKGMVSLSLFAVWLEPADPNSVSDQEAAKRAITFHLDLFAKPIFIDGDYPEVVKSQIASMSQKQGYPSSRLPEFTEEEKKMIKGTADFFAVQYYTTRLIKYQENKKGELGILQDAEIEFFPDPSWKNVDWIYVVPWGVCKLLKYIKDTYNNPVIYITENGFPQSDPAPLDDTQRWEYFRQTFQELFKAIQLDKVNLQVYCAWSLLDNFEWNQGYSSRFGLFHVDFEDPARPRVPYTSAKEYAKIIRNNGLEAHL
In words: Inhibition of beta-glucosidase at 100 ug/ml.

Experiment [3] has as its target Prothrombin (Homo sapiens) (UniProt P00734). In words: Inhibition of thrombin at 100 ug/ml.
Experiment [4] has as its target T2, Beta-galactosidase (Homo sapiens) (UniProt P16278).
T2 sequence (whole entry): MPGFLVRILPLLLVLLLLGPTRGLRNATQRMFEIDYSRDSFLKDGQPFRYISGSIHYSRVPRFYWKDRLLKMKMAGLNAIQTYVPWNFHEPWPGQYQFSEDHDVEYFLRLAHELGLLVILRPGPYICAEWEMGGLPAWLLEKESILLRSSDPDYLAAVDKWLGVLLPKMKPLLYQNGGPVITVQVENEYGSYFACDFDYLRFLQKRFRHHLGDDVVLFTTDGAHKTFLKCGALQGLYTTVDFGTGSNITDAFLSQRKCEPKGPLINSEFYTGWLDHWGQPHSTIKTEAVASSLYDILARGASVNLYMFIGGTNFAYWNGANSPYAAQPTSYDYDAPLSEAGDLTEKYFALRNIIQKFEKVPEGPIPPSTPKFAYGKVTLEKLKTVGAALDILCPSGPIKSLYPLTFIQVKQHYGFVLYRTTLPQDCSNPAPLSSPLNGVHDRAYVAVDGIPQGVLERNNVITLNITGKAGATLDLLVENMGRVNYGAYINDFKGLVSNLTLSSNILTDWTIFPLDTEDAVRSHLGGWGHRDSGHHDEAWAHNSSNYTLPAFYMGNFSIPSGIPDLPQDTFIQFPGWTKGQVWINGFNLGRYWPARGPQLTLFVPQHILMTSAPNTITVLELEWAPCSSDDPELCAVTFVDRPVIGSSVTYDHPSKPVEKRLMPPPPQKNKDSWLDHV
Nature of the experiment: Inhibition of beta-galactosidase at 100 ug/ml.

Experiment [5] in a line: Inhibition of trypsin at 100 ug/ml.

Calls of active or inactive are those of the source. No cut-off for these calls is given here.

For `C#C[C@@H](O)/C=C/CCCCCC#CC#CCCCC#CCCCC#CCCCCCC#CC(=O)OC`, in experiment [1], the result was inactive.

With `C#C[C@@H](O)/C=C/CCCCCC#CC#CCCCC#CCCCC#CCCCCCC#CC(=O)O`, the outcome in experiment [2], in experiment [3], in experiment [4] and in experiment [5] was inactive.

For `C#C/C=C\CCCC#CC#CCCCCCC/C=C\C#C`, the result in experiment [1] was inactive.
